This note sets out measurements from publication PMC6095874, “Discovery of cationic nonribosomal peptides as Gram-negative antibiotics through global genome mining” (Nature Communications, 2018).

For series [1], the system named is Escherichia coli ATCC 25922. In words: microbe, parasite or virus in culture. It is filed as cell-based. The note with it: Supplementary Table 1; Ec = Escherichia coli ATCC 25922. As to the method: (§1) MIC was determined by broth microdilution according to CLSI guidelines. The test medium for most species was Mueller–Hinton broth (MHB). Bacteria were grown overnight to early stationary phase and adjusted in MHB to 5.0 × 10^5 c.f.u. mL^−1 in the wells of 96-well microtiter plates (Falcon® 96-Well Flat-Bottom Microplate, Tissue Culture-Treated), mixed with varying concentrations of test compounds and incubated at 37 °C for 24 h. Cell growth was evaluated by measuring the optical density at 595 nm (Thermo Scientific Multiskan FC multiplate photometer) (Waltham, MA, USA), and the MIC was defined as the lowest compound concentration at which no bacterial growth was observed. MHBs containing 10% fetal bovine serum (Gibco), 21 mM MgCl, or 1.0 mg mL^−1 LPS (lipopolysaccharides from E. coli O55:B5, Sigma-Aldrich) was used to test their inhibitory effects.

Series [2] concerns Colistin-resistant E. coli (E. coli ATCC 25922 carrying mcr-1). The series can be described thus: MIC by broth microdilution. In kind it is cell-based, Escherichia coli. Particulars: MHB, 37 °C, 24 h. As to the method: as §1
Another series concerns Gram-negative bacteria. It is filed as cell-based. As to the method:
as §1

Series [3] deals with Pseudomonas aeruginosa PAO1. In kind it is cell-based. Particulars: Supplementary Table 1; Pa = Pseudomonas aeruginosa PAO1. On the procedure: as §1
The subject of series [4] is Staphylococcus aureus (MRSA). In kind it is cell-based. The note with it: 24 h. On the procedure: as §1
The next series has as its system Acinetobacter baumannii. The series can be described thus: MIC by broth microdilution. It is filed as cell-based. The note with it: Supplementary Table 1. On the procedure:
as §1

Another series concerns Bacillus subtilis 168. The series can be described thus: MIC by broth microdilution. In kind it is cell-based. The note with it: Supplementary Table 1; Bs = B. subtilis 168. As to the method:
as §1

Series [5] has as its system Enterobacter cloacae NRRL-B-413. In words: MIC by broth microdilution. It is filed as cell-based. Particulars: Supplementary Table 1; En = Enterobacter cloacae NRRL-B-413. On the procedure: as §1
The test system of series [6] is Klebsiella pneumoniae NRRL-B-408. In words: MIC by broth microdilution. It is filed as cell-based. Particulars: Supplementary Table 1; Kp = Klebsiella pneumoniae NRRL-B-408. As to the method:
as §1

Series [7] concerns K. pneumoniae NRRL-B-3521. It is filed as cell-based, Klebsiella pneumoniae. Particulars: NRRL-B-3521, 24 h. On the procedure: as §1
Another series deals with E. cloacae NRRL-B-425. In kind it is cell-based, Enterobacter cloacae. The note with it: NRRL-B-425, 24 h. On the procedure: as §1
For another series, the system named is Candida albicans. In kind it is cell-based. Particulars: 24 h.
The test system of a further series is Saccharomyces cerevisiae. It is filed as cell-based. Particulars: 24 h.
For series [8], the system named is E. coli TOP10 cells. The series can be described thus: Time-kill assay. In kind it is cell-based, Escherichia coli. On the procedure: (§2) An overnight culture of E. coli TOP10 cells was diluted 1:10,000 in MHB and incubated at 37 °C with agitation at 180 rpm for 2 h (early exponential). The bacteria were then challenged with brevicidine (20 μg mL^−1), laterocidine (20 μg mL^−1), or polymyxin B (10 μg mL^−1) at ten times the MIC at room temperature without shaking. An untreated sample of cells was used as a negative control. At intervals, 10 μL aliquots were removed, centrifuged at 10,000 × g for 1 min and resuspended in 1.0 mL of sterile PBS. Tenfold serially diluted suspensions were plated on MHB agar plates and incubated at 37 °C overnight. Colonies were counted and the number of c.f.u. per mL was calculated. For analysis of lysis, 300 μL of culture (OD600 = 1.0) were treated with antibiotics at ten times the MIC for 24 h. Experiments were performed in triplicate.

In series [9] the test system is E. coli TOP10 cells. The series can be described thus: Bacterial growth kinetics. In kind it is cell-based, Escherichia coli. Particulars: OD600 of cells exposed to antibiotics (Fig. 4: two times the MIC). On the procedure:
A single fresh colony of E. coli TOP10 cells was inoculated into MHB (5 mL) and grown with shaking at 225 rpm overnight. The bacteria were diluted to 1 × 10^5 c.f.u. mL^−1 in fresh MHB, grown […] to early log-phase (OD600 = 0.15) and treated with the antibiotics of interest in the wells of a 96-well plate. Final antibiotic concentrations varied from one to eight times the MIC. The plate was then incubated at 30 °C overnight, with OD600 measurements taken every 30 s.

Another series has as its system E. coli. The series can be described thus: Lysis assay. In kind it is cell-based, Escherichia coli. Particulars: ten times the MIC, culture OD600 = 1.0, 24 h. As to the method: as §2
Series [10] relates to E. coli ATCC 25922. In words: Resistance acquisition during serial passaging. In kind it is cell-based, Escherichia coli. The note with it: subinhibitory concentrations, 30-day period, MHB, 37 °C, quadruplicate. On the procedure: E. coli ATCC 25922 was inoculated into MHB overnight at 37 °C with continuous shaking. Cells were diluted 10,000 times in MHB to about 1 × 10^6 c.f.u. mL^−1. Ten µL aliquots were drawn to a 96-well plate containing 90 µL of serially diluted brevicidine, laterocidine, and ciprofloxacin, at final concentrations of 0.5×, 1×, 1.5×, 2×, and 4× MIC. […] Plates with bacteria were incubated at 37 °C without shaking. […] This process was repeated for 30 days, and the final MIC was confirmed by the same antibacterial assay as the one described above. The experiment was performed in quadruplicate, and on each day, the sample that developed the highest resistance was measured to plot the curve. For single-step resistance, E. coli ATCC 25922 cells at 10^8 c.f.u. were plated onto Mueller–Hinton agar containing 4× MIC of brevicidine.

In series [11] the test system is E. coli ATCC 25922. The series can be described thus: Neutropenic mouse thigh infection model. It is filed as in vivo. The note with it: laterocidine 15 mg kg^−1 twice s.c., five mice, after 26 h, Mann–Whitney P < 0.01. On the procedure:
Given the low risk of resistance and the attractive mode of action of 1–2, an animal efficacy study was then performed in a mouse thigh model. Mice were intramuscularly infected with 1.50 × 10^6 c.f.u. of E. coli ATCC 25922. Two hours post infection, brevicidine (30 mg kg^−1) or laterocidine (15 mg kg^−1) was subcutaneously injected at two doses. […] In particular, compound 1 was highly efficacious in mice infected with E. coli and caused a 5 log10 reduction in c.f.u. in the thigh compared to the vehicle control after 24 h (Fig. 4f).
In vivo activities of brevicidine and laterocidine were tested using the mouse thigh infection model. Animal studies were performed by Pharmacology Discovery Services Taiwan Ltd. in general accordance with standard guidelines on animal welfare[38] in an AAALAC-accredited facility. The protocol was reviewed and approved by the Institutional Animal Care and Use Committee. Groups of five female-specific pathogen-free ICR (CD-1) mice weighing 22 ± 2 g (~5 weeks of age) were used. Animals were immunosuppressed with two intraperitoneal injections of cyclophosphamide, the first at 150 mg kg^−1 4 days before infection (day −4) and the second at 100 mg kg^−1 1 day before infection (day −1). On day 0, animals were inoculated intramuscularly (0.1 mL per thigh) in the right thigh with an E. coli ATCC 25922 suspension. Vehicle (10% DMSO, 1% Tween 80, 0.9% NaCl) and antibiotics were then subcutaneously injected 2 and 8 h later. Due to the limited availability of compounds 1–2, only one concentration of 1 (30 mg kg^−1) or 2 (15 mg kg^−1) was used in the present study. Precisely 26 h after inoculation, animals were euthanized by CO2 asphyxiation before their right thigh muscles were harvested. The removed muscles were homogenized in 5 mL of PBS, pH 7.4, with a Polytron homogenizer. Homogenates in the amount of 0.1 mL were used for serial tenfold dilutions and plated onto a nutrient agar medium for colony count (in c.f.u. g^−1) determination. No randomization or blinding was necessary for the animal infection models, and no samples were excluded.

Another series relates to rabbit erythrocytes. Particulars: concentrations up to 128 μg mL^−1, 2% (v/v) rabbit erythrocytes in PBS, 1 h, 37 °C, absorbance 570 nm, vs 10% Triton X-100.
The next series deals with Human HeLa cells. The note with it: concentrations up to 128 μg mL^−1, 48 h, 37 °C, MTT, absorbance 570 nm.

The structures appear in SMILES notation. Converted amounts (≈) assume the structure as drawn. Read-outs that look alike come from different tables or passages of the source. Where a SMILES comes first, the peptide text is derived from it. Bridges are numbered along the chain shown (N, C = ends). [ ]: non-standard residue; d: D form. The star is where a group is joined. Octanoyl(7-Me) = CC(C)CCCCCC(=O)*; dOrn = NCCC[C@@H](N)C(=O)O; Orn = NCCC[C@H](N)C(=O)O

Method for Human HeLa cells: Human HeLa cells were used in the assay. Ninety μL of 1 × 10^5 mL^−1 cells were placed into the wells of 96-microwell plates. After 12 h, 10 μL of a medium containing test compounds at various concentrations were added to the cells which were then incubated at 37 °C for 48 h. Afterward, the supernatant was removed and 20 μL of MTT (3-(4,5-Dimethylthiazol-2-yl)-2,5-Diphenyltetrazolium Bromide) (2.5 mg mL^−1) in PBS were added to each well. After incubation at 37 °C for 3 h, 80 μL of dimethyl sulfoxide (DMSO) were added to each well and incubated for an additional 15 min. The absorbance was then measured at 570 nm with a Thermo Scientific Multiskan FC multiplate photometer.
Method for rabbit erythrocytes: Hemolytic activity was determined with red blood cells freshly isolated from healthy rabbits. […] The cells were incubated for 1 h at 37 °C and centrifuged for 5 min at 10,000 × g. The supernatant was transferred to a 96-well plate and the absorbance was measured at a wavelength of 570 nm with a Thermo Scientific Multiskan FC multiplate photometer. The absorbance relative to the positive control, which was treated with 10% Triton X-100, was defined as the percentage of hemolysis.

For `CC[C@H](C)[C@@H]1NC(=O)[C@@H](NC(=O)[C@H](Cc2c[nH]c3ccccc23)NC(=O)[C@@H](CCCN)NC(=O)CNC(=O)[C@H](CCCN)NC(=O)[C@@H](CCCN)NC(=O)[C@@H](Cc2c[nH]c3ccccc23)NC(=O)[C@@H](Cc2ccc(O)cc2)NC(=O)[C@@H](CO)NC(=O)CCCCCC(C)C)[C@@H](C)OC(=O)CNC(=O)CNC(=O)[C@H](CC(N)=O)NC1=O` [Compound 2, laterocidine] ({Octanoyl(7-Me)}-[dS][dY][dW][dOrn][Orn]G[dOrn]WTINGG; ester 9-C), in series [1], the “MIC, Ec” value was 2 µg/mL (≈ 1.25 µM). Besides, the MIC in series [2] is 2 µg/mL (≈ 1.25 µM); in series [4], >64 µg/mL; in series [7], 4 µg/mL (≈ 2.49 µM); against E. cloacae NRRL-B-425, 2 µg/mL (≈ 1.25 µM); with Candida albicans, >64 µg/mL; against Saccharomyces cerevisiae it was >64 µg/mL. Also, the “MIC values against Gram-negative bacteria” value lay in the range of 0.66 to 10.5 µM with Gram-negative bacteria (24 h); 1 to 16 µg/mL against Gram-negative bacteria (range over Gram-negative strains incl. P. aeruginosa and colistin-resistant E. coli). In [3], the “MIC, Pa” value was 2 µg/mL (≈ 1.25 µM). In addition, the “MIC, Ab” value in the series on Acinetobacter baumannii was found to be 4 µg/mL (≈ 2.49 µM). In addition, the “MIC, Bs” value against Bacillus subtilis 168 stood at 32 µg/mL (≈ 19.9 µM). For the same compound, the “MIC, En” value in series [5] amounted to 2 µg/mL (≈ 1.25 µM). Further, the “MIC, Kp” value in [6] was determined as 4 µg/mL (≈ 2.49 µM). In addition, the “bactericidal action against E. coli” value in the series on E. coli TOP10 cells [8] (as revealed by growth kinetics, time-kill assay and lysis assay) was “bactericidal”. The “cell viability in time-kill assay” value with E. coli TOP10 cells [8] (ten times the MIC, early exponential cells, room temperature, c.f.u. counts, triplicate) is given as “significant reduction after 30 min”. In addition, the “growth kinetics of E. coli cells exposed to compound” value with E. coli TOP10 cells [9] is “grew at a reduced rate for 30 min”. Also, the “lysis of E. coli cells” value in the series on E. coli was “completely lysed”. For the same compound, the “resistance development during serial passaging” value in the series on E. coli ATCC 25922 [10] was “did not develop resistance”. Also, the “viable bacteria in thigh” value in the series on E. coli ATCC 25922 [11] is listed as “reduced number of viable bacteria”. In addition, the “lysis of erythrocytes (hemolysis)” value with rabbit erythrocytes is recorded as “neither caused the lysis of erythrocytes”. Moreover, in the series on Human HeLa cells, the “toxicity against the human cell line HeLa” value was “nor showed significant toxicity”.
